Data taken from article PMC3335862, “Novel Small-Molecule Inhibitors of Hepatitis C Virus Entry Block Viral Spread and Promote Viral Clearance in Cell Culture” (PLoS ONE, 2012).
Read-outs that look alike come from different tables or passages of the source.

Tests used:
[1] = test system: HCVpp pseudotyped with the GT1a envelope; experiment: microbe, parasite or virus in culture; type: cell-based; details: Hepatitis C virus, Hep3B cells, 72 h
[2] = test system: HCVpp GT 1b; experiment: microbe, parasite or virus in culture; type: cell-based; details: Hepatitis C virus, GT1B
[3] = test system: HCVpp genotype 4; experiment: microbe, parasite or virus in culture; type: cell-based; details: Hepatitis C virus; n = 1 strain
[4] = test system: HCVpp typed with envelopes representing genotypes 2a, 2b, 3, and 6; experiment: microbe, parasite or virus in culture; type: cell-based; details: Hepatitis C virus
[5] = test system: VSVpp; experiment: microbe, parasite or virus in culture; type: cell-based, VSV
[6] = test system: GT 1a/2a HCV; experiment: HCV viral spread assay (cell-free and cell-cell transmission), flow cytometry; type: cell-based, hepatitis C virus; details: 72 h; PRO0371155 1 µM, PA-25 10 µg/mL; DMSO control 18.3, Background 0.31
Source text: Figure 3 PRO0371155 inhibits HCV infection by both cell-free and cell-cell modes of transmission. […] TEXT PRINTED IN THE PICTURE: PA-25: 7.54; 19.9; 66.8; 5.75 | DMSO: 4.4; 29.8; 47.6; 18.3 | PRO0371155: 8.1; 25.7; 65.7; 0.48 DOUBTS OF THE COPYIST ABOUT THIS PICTURE: All values are quadrant numbers of flow cytometry plots, given in the order upper left, upper right, lower left, lower right. The picture prints no measure or unit with them. / The print is very small, so 3, 5, 6, 8 and 9 cannot be told apart with certainty in any of the values below. / PA-25: 7.54, 19.9, 66.8 (partly hidden by data points; may be 65.8 or 68.8), 5.75 / DMSO: 4.4, 29.8 (or 29.6), 47.6 (partly hidden by data points; may be 47.8), 18.3 (or 18.8) / PRO0371155: 8.1, 25.7, 65.7 (partly hidden by data points), 0.48 (or 0.46) / The plot headed 'Background' (0.016, 5.44e-3, 99.7, 0.31) is left out because it is a staining control and not a substance.
8.8.7 software (TreeStar).
To determine whether the triazine series can block both routes of infection, we utilized a flow cytometry-based cell-to-cell transmission assay. Infected cells, stained with CellTracker green, were mixed with naïve cells in the presence or absence of entry inhibitors.

[7] = test system: HCVpp GT1a Pass. Ctrl.; experiment: microbe, parasite or virus in culture; type: cell-based; details: Hepatitis C virus, envelope from DMSO passage control culture
[8] = test system: HCVpp T388A; type: cell-based, hepatitis C virus
[9] = test system: HCVpp V719G; type: cell-based, hepatitis C virus; details: GT1a background
[10] = test system: HCVpp GT1a-V719L; type: cell-based, hepatitis C virus; details: GT1a background
[11] = test system: HCVpp GT 1a-V719I; type: cell-based, hepatitis C virus
[12] = test system: HCVpp GT 1a V719A; type: cell-based, hepatitis C virus
[13] = test system: HCVpp GT 1b-V719L; type: cell-based, hepatitis C virus; details: Genotype 1b background
[14] = test system: HCVpp GT 1b-V719I; type: cell-based, hepatitis C virus; details: Genotype 1b background
[15] = test system: HCVpp GT 1b V719A; type: cell-based, hepatitis C virus; details: Genotype 1b background
[16] = test system: Hep3B, Huh-7, 293T, HeLa, Daudi, Ramos, Jurkat, primary hepatocyte; details: CellTiter Glo assay; data not shown except Hep3B
[17] = in vitro; details: human
[18] = test system: GT 1a/2a HCV; experiment: HCV cell culture infection assay (Renilla luciferase), GT 1a/2a; details: Hepatitis C virus, GT1A, read-out: HCV Cell Culture EC50 GT 1a/2a
[19] = test system: GT 1b/2a HCV; experiment: HCV cell culture infection assay (Renilla luciferase), GT 1b/2a; details: Hepatitis C virus, GT1B, read-out: HCV Cell Culture EC50 GT 1b/2a
[20] = test system: GT 1a/2a HCV; experiment: Quantification of HCV RNA by qRT-PCR in long term treated cultures
[21] = test system: GT 1a/2a HCV
[22] = culture initially 33% HCV+, 1 µM

SMILES: CS(=O)(=O)N1CCC(Nc2nc(Nc3cccc(C(F)(F)F)c3)nc(OCC(F)(F)F)n2)CC1 [PRO0371155]
- EC50 ([1]; median across panel of GT 1a envelopes from HCV+ patient sera (n = strains), read-out: HCVpp Median EC50 GT 1a): 0.009 µM
- EC50 ([1]; prototypical/parent GT 1a envelope, read-out: GT1a (EC50), HCVpp): 0.002 µM
- EC50 ([2]; Hep3B, parent GT 1b envelope, read-out: EC50, HCVpp GT 1b): 0.317 µM
- EC50 ([2]; median across panel of GT 1b envelopes from HCV+ patient sera (n = strains), Hep3B cells, 72 h, read-out: HCVpp Median EC50 GT 1b): > 0.825 µM
- EC50 [3]: 0.19 µM
- EC50 [4]: > 1 µM
- inhibition of entry of pseudoviral particles with envelope glycoproteins from irrelevant viruses including VSV [5]: did not inhibit
- EC50 ([5]; Vesicular stomatitis virus, read-out: VSVpp EC50): 39 µM
- newly infected HCV+ cells (lower right quadrant) [6]: 0.48%
- EC50 [7]: 0.004 µM
- influence of T388A on susceptibility in the HCVpp assay [8]: did not have any influence
- EC50 ([8]; GT1a background): 0.002 µM
- EC50 [9]: > 1 µM
- loss in susceptibility, V719G vs GT1a in the HCVpp assay [9]: > 500 fold
- reduction in activity vs parent GT1a envelope, V719L [10]: 500 fold
- reduction in potency vs parent GT1a envelope, V719I ([11]; GT1a background): 34 fold
- EC50 ([11]; Genotype 1a background): 0.067 µM
- fold change of EC50 vs parent GT 1a, V719I ([11]; Genotype 1a background): 34 ×
- reduction in potency vs parent GT1a envelope, V719A ([12]; GT1a background): 46 fold
- EC50 ([12]; Genotype 1a background): 0.092 µM
- fold change of EC50 vs parent GT 1a, V719A ([12]; Genotype 1a background): 46 ×
- EC50 [13]: > 1 µM
- fold change of EC50 vs parent GT 1b, V719L [13]: 3 ×
- EC50 [14]: > 1 µM
- fold change of EC50 vs parent GT 1b, V719I [14]: 3 ×
- EC50 [15]: 0.273 µM
- fold change of EC50 vs parent GT 1b, V719A [15]: 0.9 ×
- cytotoxicity against a panel of cell lines and primary cells [16]: minimal cytotoxicity
- CC50 [17]: 31 µM
- EC50 [18]: 0.009 µM
- EC50 [19]: > 1 µM
- time HCV RNA maintained at background levels after removal of compound [20]: > 50 days
- HCV RNA levels ([20]; after 100 days in the presence of compound, 1 µM, limit of quantification): < 0.5 copies/cell
- change in percentage of HCV+ cells (NS3 staining) ([21]; 20% HCV+ at baseline, PRO0371155 1 µM, IFN-alpha 10 IU/mL): more gradual decline
- day of viral breakthrough in the presence of compound [21, 22]: 21 days
- time to loss of viral suppression and emergence of drug resistance [21, 22]: ~3 weeks
- fate of infected cells on long term treatment ([21]; culture initially 90% HCV+, 1 µM): eradicated
- viral rebound during washout period ([21]; drug released at day 116, passaged additional 30 days, 90% HCV+ culture): not observed
